# Reference: patent publication US11591365B2, “BCL9 peptides and variants thereof” (WntRx Pharmaceuticals Inc., priority 2017, dated 2023)
# Where a SMILES comes first, the peptide text is derived from it. Bridges are numbered along the chain shown (N, C = ends). [ ]: non-standard residue; d: D form. 2Nal = N[C@@H](Cc1ccc2ccccc2c1)C(=O)O; NMeR = CN[C@@H](CCCNC(=N)N)C(=O)O; NMeE = CN[C@@H](CCC(=O)O)C(=O)O; Cha = N[C@@H](CC1CCCCC1)C(=O)O; Cba = N[C@@H](CC1CCC1)C(=O)O; S5 = C=CCCC[C@](C)(N)C(=O)O; βAla = NCCC(=O)O
# Tested on: Colo320DM
# Test: Colo320DM cell viability
# Type: cell-based, human
# Text: In some embodiments, a polypeptide described herein inhibits binding of BLC9 to β-catenin when assessed in a cell-viability assay. In some embodiments, the cell-viability assay is a CellTiterGlo luminescent assay, wherein the viability of cells is quantitatively measured. Various cell lines, transformed cell lines or primary cells derived from a healthy subject or subject suffering from a disease can be used in this assay.
row,SMILES,IC50 [µM]
1,"CC[C@H](C)[C@@H]1NC(=O)[C@@](C)(NC(=O)[C@H](CCCNC(=N)N)NC(=O)[C@H](CC(C)C)NC(=O)[C@]2(C)CCCC=CCCC[C@](C)(NC(=O)[C@H](CCC(=O)O)NC(=O)[C@H](CCCNC(=N)N)NC(C)=O)C(=O)N[C@@H](CO)C(=O)N[C@@H](CC(C)C)C(=O)N[C@@H](CCC(N)=O)C(=O)N2)CCCC=CCCC[C@@](C)(C(=O)N[C@@H](CC(C)C)C(=O)N[C@@H](Cc2ccc3ccccc3c2)C(=O)NCCC(=O)NCCC(N)=O)NC(=O)[C@H](CCCNC(=N)N)NC(=O)[C@H](CCC(N)=O)NC1=O [SEQ ID NO: 40, REXSLQXLRZIQRZL(2-Nal)(β-Ala)(β-Ala)] (Ac-RE[S5]SLQ[S5]LR[S5]IQR[S5]L[2Nal][βAla][βAla]-NH2; staple 3-7, 10-14)",0.83
2,"CC[C@H](C)[C@@H]1NC(=O)[C@@](C)(NC(=O)[C@H](CCCNC(=N)N)NC(=O)[C@H](CC(C)C)NC(=O)[C@]2(C)CCCC=CCCC[C@](C)(NC(=O)[C@H](CCC(=O)O)NC(=O)[C@H](CCCNC(=N)N)NC(=O)[C@@H](N)Cc3c[nH]cn3)C(=O)N[C@@H](CO)C(=O)N[C@@H](CC(C)C)C(=O)N[C@@H](CCC(N)=O)C(=O)N2)CCCC=CCCC[C@@](C)(C(=O)N[C@@H](CC2CCC2)C(=O)N[C@@H](Cc2ccc3ccccc3c2)C(=O)O)NC(=O)[C@H](CCCNC(=N)N)NC(=O)[C@H](CCC(N)=O)NC1=O [SEQ ID NO: 82, HREXSLQXLRZIQRZ(CBA)(2-Nal)] (H-HRE[S5]SLQ[S5]LR[S5]IQR[S5][Cba][2Nal]-OH; staple 4-8, 11-15)",> 5
3,"CC[C@H](C)[C@@H]1NC(=O)[C@@](C)(NC(=O)[C@H](CCCNC(=N)N)NC(=O)[C@H](CC(C)C)NC(=O)[C@]2(C)CCCC=CCCC[C@](C)(NC(=O)[C@H](CCCNC(=N)N)NC(=O)[C@H](CCC(N)=O)NC(=O)[C@H](CCCNC(=N)N)NC(=O)[C@H](Cc3c[nH]cn3)NC(C)=O)C(=O)N[C@@H](CC(C)C)C(=O)N[C@@H](CCC(N)=O)C(=O)N2)CCCC=CCCC[C@@](C)(C(=O)N[C@@H](CC2CCC2)C(=O)N[C@@H](Cc2ccc3ccccc3c2)C(N)=O)NC(=O)[C@H](CCCNC(=N)N)NC(=O)[C@H](CCC(N)=O)NC1=O [SEQ ID NO: 90, HRQRXLQXLRZIQRZ(CBA)(2-Nal)] (Ac-HRQR[S5]LQ[S5]LR[S5]IQR[S5][Cba][2Nal]-NH2; staple 5-8, 11-15)",1.83
4,"CC[C@H](C)[C@@H]1NC(=O)[C@@](C)(NC(=O)[C@H](CCCNC(=N)N)NC(=O)[C@H](CC(C)C)NC(=O)[C@@H](NC(=O)[C@]2(C)CCCC=CCCC[C@](C)(NC(=O)[C@H](CCCNC(=N)N)NC(=O)[C@H](Cc3c[nH]cn3)NC(C)=O)C(=O)N[C@@H](CCCNC(=N)N)C(=O)N[C@@H](CO)C(=O)N[C@@H](CC(C)C)C(=O)N2)[C@@H](C)O)CCCC=CCCC[C@@](C)(C(=O)N[C@@H](CC2CCC2)C(=O)N[C@@H](Cc2ccc3ccccc3c2)C(N)=O)NC(=O)[C@H](CCCNC(=N)N)NC(=O)[C@H](CCC(N)=O)NC1=O [SEQ ID NO: 94, HRXRSLXTLRZIQRZ(CBA)(2-Nal)] (Ac-HR[S5]RSL[S5]TLR[S5]IQR[S5][Cba][2Nal]-NH2; staple 3-7, 11-15)",3.34
5,"CC[C@H](C)[C@@H]1NC(=O)[C@@](C)(NC(=O)[C@H](CCCNC(=N)N)NC(=O)[C@H](CC(C)C)NC(=O)[C@@H](NC(=O)[C@H](CCC(N)=O)NC(=O)[C@H](CC(C)C)NC(C)=O)[C@@H](C)O)CCCC=CCCC[C@@](C)(C(=O)N[C@@H](CC2CCC2)C(=O)N[C@@H](Cc2ccc3ccccc3c2)C(N)=O)NC(=O)[C@H](CCCNC(=N)N)NC(=O)[C@H](CCC(N)=O)NC1=O [SEQ ID NO: 107, LQTLRXIQRX(CBA)(2-Nal)] (Ac-LQTLR[S5]IQR[S5][Cba][2Nal]-NH2; staple 6-10)",> 5
6,"CC[C@H](C)[C@@H]1NC(=O)[C@@](C)(NC(=O)[C@H](CCCNC(=N)N)NC(=O)[C@H](CC(C)C)NC(=O)[C@@H](NC(=O)[C@H](CCC(=O)O)NC(=O)[C@H](CC(C)C)NC(C)=O)[C@@H](C)O)CCCC=CCCC[C@@](C)(C(=O)N[C@@H](CC2CCC2)C(=O)N[C@@H](Cc2ccc3ccccc3c2)C(N)=O)NC(=O)[C@H](CCCNC(=N)N)NC(=O)[C@H](CCC(N)=O)NC1=O [SEQ ID NO: 109, LETLRXIQRX(CBA)(2-Nal)] (Ac-LETLR[S5]IQR[S5][Cba][2Nal]-NH2; staple 6-10)",> 5
7,"CC[C@H](C)[C@@H]1NC(=O)[C@@](C)(NC(=O)[C@H](CCCNC(=N)N)N(C)C(=O)[C@H](CC(C)C)NC(=O)[C@@H](NC(=O)[C@H](CCC(N)=O)NC(=O)[C@H](CC(C)C)NC(=O)[C@H](CO)NC(=O)[C@H](CCCNC(=N)N)NC(=O)[C@H](CCC(=O)O)NC(=O)[C@H](CCCNC(=N)N)NC(=O)[C@H](Cc2c[nH]cn2)NC(C)=O)[C@@H](C)O)CCCC=CCCC[C@@](C)(C(=O)N[C@@H](CC2CCC2)C(=O)N[C@@H](Cc2ccc3ccccc3c2)C(=O)O)NC(=O)[C@H](CCCNC(=N)N)NC(=O)[C@H](CCC(N)=O)NC1=O [SEQ ID NO: 152, HRERSLQTL(N-methylR)XIQRX(CBA)(2-Nal)] (Ac-HRERSLQTL[NMeR][S5]IQR[S5][Cba][2Nal]-OH; staple 11-15)",> 5

# Now from value to compound:
row,IC50 [µM],SMILES
1,2.54,"CC[C@H](C)[C@@H]1NC(=O)[C@@](C)(NC(=O)[C@H](CCCNC(=N)N)NC(=O)[C@H](CC2CCCCC2)NC(=O)[C@]2(C)CCCC=CCCC[C@](C)(NC(=O)[C@H](CCCNC(=N)N)NC(=O)[C@H](CCC(N)=O)NC(=O)[C@H](CCCNC(=N)N)NC(=O)[C@H](Cc3c[nH]cn3)NC(C)=O)C(=O)N[C@@H](CC(C)C)C(=O)N[C@@H](CCC(N)=O)C(=O)N2)CCCC=CCCC[C@@](C)(C(=O)N[C@@H](CC2CCCCC2)C(=O)N[C@@H](Cc2ccc3ccccc3c2)C(N)=O)NC(=O)[C@H](CCCNC(=N)N)NC(=O)[C@H](CCC(N)=O)NC1=O [SEQ ID NO: 92, HRQRXLQX(Cha)RZIQRZ(Cha)(2-Nal)] (Ac-HRQR[S5]LQ[S5][Cha]R[S5]IQR[S5][Cha][2Nal]-NH2; staple 5-8, 11-15)"
2,> 5,"CC[C@H](C)[C@@H]1NC(=O)[C@@](C)(NC(=O)[C@H](CCCNC(=N)N)NC(=O)[C@H](CC(C)C)NC(=O)[C@@H](NC(=O)[C@H](CCC(N)=O)NC(=O)[C@H](CC(C)C)NC(=O)[C@H](CO)NC(=O)[C@H](CCCNC(=N)N)NC(=O)[C@H](CCC(=O)O)NC(=O)[C@H](CCCNC(=N)N)NC(=O)[C@H](Cc2c[nH]cn2)NC(C)=O)[C@@H](C)O)CCCC=CCCC[C@@](C)(C(=O)N[C@@H](CC2CCC2)C(=O)N[C@@H](Cc2ccc3ccccc3c2)C(N)=O)NC(=O)[C@H](CCC(N)=O)NC(=O)[C@H](CCC(N)=O)NC1=O [SEQ ID NO: 145, HRERSLQTLRXIQQX(CBA)(2-Nal)] (Ac-HRERSLQTLR[S5]IQQ[S5][Cba][2Nal]-NH2; staple 11-15)"
3,3.1,"CC[C@H](C)[C@@H]1NC(=O)[C@@](C)(NC(=O)[C@H](CCCNC(=N)N)NC(=O)[C@H](CC(C)C)NC(=O)[C@@H](NC(=O)[C@H](CCC(N)=O)NC(=O)[C@H](CC(C)C)NC(=O)[C@H](CO)NC(=O)[C@H](CCCNC(=N)N)NC(=O)[C@H](CCC(=O)O)N(C)C(=O)[C@H](CCCNC(=N)N)NC(=O)[C@H](Cc2c[nH]cn2)NC(C)=O)[C@@H](C)O)CCCC=CCCC[C@@](C)(C(=O)N[C@@H](CC2CCC2)C(=O)N[C@@H](Cc2ccc3ccccc3c2)C(N)=O)NC(=O)[C@H](CCCNC(=N)N)NC(=O)[C@H](CCC(N)=O)NC1=O [SEQ ID NO: 151, HR(N-methylE)RSLQTLRXIQRX(CBA)(2-Nal)] (Ac-HR[NMeE]RSLQTLR[S5]IQR[S5][Cba][2Nal]-NH2; staple 11-15)"
